Measurements reported in patent US8242120B2 (priority 2007, dated 2012).
“Also recorded” adds a separate entry of the source.

What was measured:
[1] = test system: flu A (DUCK)-H5N1 virus; format: cell-based, Avian influenza A H5N1
[2] = mouse, in vivo
[3] = test system: CTP synthase; details: cited from earlier work
[4] = test system: Venezuelan equine encephalitis virus (TC-83 vaccine strain); parameters: species or system C3H/HeN mice; details: in vivo
[5] = test system: Venezuelan Equine Encephalitis (VEE); format: cell-based, Venezuelan equine encephalitis virus
[6] = test system: Avian influenza A strain H5N1 virus; format: cell-based

Nc1ccn([C@@H]2C[C@H](CO)[C@@H](O)[C@H]2O)c(=O)n1 [(−) carbodine, (1R,2S,3R,4R)-1-[2,3-Dihydroxy-4-(hydroxymethyl)-cyclopentan-1-yl]cytosine]
activity against H5N1 in vitro [1]: good activity
weight loss in sham infected mice [2]: weight loss was observed
inhibition of CTP synthase that converts UTP to CTP [3]: known inhibitor
activity against vaccine strain (TC-83) of VEEV in C3H/HeN mouse model [4]: active
all disease signs measured ([4]; mouse): effective in significantly improving
mean day to death ([4]; mouse): efficacious in significantly improving; also recorded: effective in significantly improving
reduction in brain virus titer ([4]; mouse): 1 log
survival ([4]; mouse): efficacious in significantly improving; also recorded: effective in significantly improving
weight gain ([4]; mouse): efficacious in significantly improving; also recorded: effective in significantly improving
activity against VEE in vitro [5]: good activity
activity as an inhibitor of Avian Influenza A strain H5N1 [6]: good activity
